# Reference: patent US20140243292A1, “SUBSITUTED 2-(CHROMAN-6-YLOXYL)-THIAZOLES AND THEIR USE AS PHARMACEUTICALS” (Sanofi, priority 2011, published 2014)
# Structures can show the parent of a compound that is named as a salt.
# Molecular target: T1, human NCX1 (Homo sapiens, UniProt P32418)
# T1 construct: expressed in transfected cells
# Test: NCX1 inhibition, reverse mode (Ca2+ influx into cells), FLIPR Fluo-4 assay
# Type: cell-based
# Details: NCX1 reverse mode; at 30 μM; read-out: Inhibition in % at 30 μM (NCX1rv; IC50 value not determined)
# How it was run: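 CHO cells stably expressing human NCX1 were loaded with 2 µM Fluo-4 AM for 80 min at room temperature, then preincubated with compound for 45 min at 16 °C in pH 7.4 HEPES buffer (3.5 mM CaCl2, 2.5 mM probenecid). Reverse-mode Ca2+ influx was triggered by 20 µM final gramicidin and read at 520 nm on FLIPR. IC50 came from % inhibition of max−min fluorescence.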
row,inhibition at 30 µM,Structure (SMILES)
1,30%,CCOC(=O)C[C@H](O)[C@H](CC1CCCCC1)NC(=O)c1cnc(Oc2ccc3c(c2)CC[C@@H](c2ccccc2)O3)s1 [compound 227]
2,46%,CC(C)C[C@@H](NC(=O)c1cnc(Oc2ccc3c(c2)CC[C@@H](c2ccccc2)O3)s1)C(=O)OC(C)(C)C [compound 228]
3,44%,CC(C)C[C@H](NC(=O)c1cnc(Oc2ccc3c(c2)CC[C@@H](c2ccccc2)O3)s1)C(=O)OC(C)(C)C [compound 229]

# Same assay, conditions: inhibition of NCX1 in reverse mode (Ca2+ influx into cells); read-out: NCX1rv IC50
row,IC50,Structure (SMILES)
1,200 nM,CCOC(=O)[C@H](C)NC(=O)c1cnc(Oc2ccc3c(c2)CC[C@@H](c2ccccc2)O3)s1 [compound 180]
2,200 nM,COC(=O)CNC(=O)c1cnc(Oc2ccc3c(c2)CC[C@@H](c2ccccc2)O3)s1 [compound 181]
3,1200 nM,CCC(C)[C@H](NC(=O)c1cnc(Oc2ccc3c(c2)CC[C@@H](c2ccccc2)O3)s1)C(=O)OC (stereo partly drawn) [compound 183]
4,400 nM,COC(=O)[C@@H](C)NC(=O)c1cnc(Oc2ccc3c(c2)CC[C@@H](c2ccccc2)O3)s1 [compound 184]
5,500 nM,COC(=O)[C@@H]1CCCN1C(=O)c1cnc(Oc2ccc3c(c2)CC[C@@H](c2ccccc2)O3)s1 [compound 185]
6,700 nM,CCOC(=O)[C@@H](NC(=O)c1cnc(Oc2ccc3c(c2)CC[C@@H](c2ccccc2)O3)s1)C(C)C [compound 186]
7,600 nM,COC(=O)C1(NC(=O)c2cnc(Oc3ccc4c(c3)CC[C@@H](c3ccccc3)O4)s2)CCCC1 [compound 187]
8,600 nM,CCOC(=O)C1(NC(=O)c2cnc(Oc3ccc4c(c3)CC[C@@H](c3ccccc3)O4)s2)CC1 [compound 188]
9,900 nM,CN(CC(=O)O)C(=O)c1cnc(Oc2ccc3c(c2)CC[C@@H](c2ccccc2)O3)s1 [compound 190]
10,600 nM,C[C@H](NC(=O)c1cnc(Oc2ccc3c(c2)CC[C@@H](c2ccccc2)O3)s1)C(=O)O [compound 191]
11,500 nM,O=C(O)CNC(=O)c1cnc(Oc2ccc3c(c2)CC[C@@H](c2ccccc2)O3)s1 [compound 192]
12,600 nM,CC(C)(NC(=O)c1cnc(Oc2ccc3c(c2)CC[C@@H](c2ccccc2)O3)s1)C(=O)O [compound 193]
13,700 nM,C[C@@H](NC(=O)c1cnc(Oc2ccc3c(c2)CC[C@@H](c2ccccc2)O3)s1)C(=O)O [compound 194]
14,700 nM,O=C(NC1(C(=O)O)CCCC1)c1cnc(Oc2ccc3c(c2)CC[C@@H](c2ccccc2)O3)s1 [compound 195]
15,500 nM,CCC(C)[C@H](NC(=O)c1cnc(Oc2ccc3c(c2)CC[C@@H](c2ccccc2)O3)s1)C(=O)O (stereo partly drawn) [compound 196]
16,600 nM,CC(C)[C@H](NC(=O)c1cnc(Oc2ccc3c(c2)CC[C@@H](c2ccccc2)O3)s1)C(=O)O [compound 197]
17,1300 nM,O=C(O)CN1CCN(C(=O)c2cnc(Oc3ccc4c(c3)CC[C@@H](c3ccccc3)O4)s2)CC1 [compound 198]
18,1000 nM,O=C(NC1(C(=O)O)CC1)c1cnc(Oc2ccc3c(c2)CC[C@@H](c2ccccc2)O3)s1 [compound 199]
19,400 nM,O=C(N[C@H]1CCCC[C@H]1C(=O)O)c1cnc(Oc2ccc3c(c2)CC[C@@H](c2ccccc2)O3)s1 [compound 200]
20,300 nM,O=C(N[C@H](CO)c1ccccc1)c1cnc(Oc2ccc3c(c2)CC[C@@H](c2ccccc2)O3)s1 [compound 201]
21,200 nM,C[C@H](O)[C@H](CO)NC(=O)c1cnc(Oc2ccc3c(c2)CC[C@@H](c2ccccc2)O3)s1 [compound 202]
22,400 nM,CC(C)[C@@H](CO)NC(=O)c1cnc(Oc2ccc3c(c2)CC[C@@H](c2ccccc2)O3)s1 [compound 203]

row,IC50,Structure (SMILES)
1,100 nM,O=C(NCCO)c1cnc(Oc2ccc3c(c2)CC[C@@H](c2ccccc2)O3)s1 [compound 204]
2,300 nM,O=C(c1cnc(Oc2ccc3c(c2)CC[C@@H](c2ccccc2)O3)s1)N1CCC[C@H]1CO [compound 205]
3,500 nM,O=C(NC[C@H]1CCCC[C@H]1O)c1cnc(Oc2ccc3c(c2)CC[C@@H](c2ccccc2)O3)s1 [compound 207]
4,400 nM,CC[C@H](C)[C@@H](CO)NC(=O)c1cnc(Oc2ccc3c(c2)CC[C@@H](c2ccccc2)O3)s1 [compound 208]
5,300 nM,CC[C@@H](C)[C@H](CO)NC(=O)c1cnc(Oc2ccc3c(c2)CC[C@@H](c2ccccc2)O3)s1 [compound 209]
6,100 nM,c1ccc([C@@H]2CCc3cc(Oc4ncc(CNCc5ccno5)s4)ccc3O2)cc1 [compound 210]
7,400 nM,"O=C(NCc1ccnc(Cl)c1)c1cnc(Oc2ccc3c(c2)CCC(c2ccsc2)O3)s1 (stereo not drawn) [compound 211, hydrochloride]"
8,300 nM,O=C(NCc1ccno1)c1cnc(Oc2ccc3c(c2)CCC(c2ccsc2)O3)s1 (stereo not drawn) [compound 212]
9,800 nM,"CN1CCN(C(=O)c2cnc(Oc3ccc4c(c3)CC[C@@H](c3ccccc3)O4)s2)CC1 [compound 213, hydrochloride]"
10,1000 nM,Cc1ccccc1C1CCc2cc(Oc3ncc(C(=O)NCc4ccnc(Cl)c4)s3)ccc2O1 (stereo not drawn) [compound 215]
11,200 nM,O=C(NCc1ccno1)c1cnc(Oc2ccc3c(c2)CCC(c2cc(F)ccc2F)O3)s1 (stereo not drawn) [compound 217]
12,2500 nM,COC(=O)C(C)(Cc1ccccc1)NC(=O)c1cnc(Oc2ccc3c(c2)CC[C@@H](c2ccccc2)O3)s1 (stereo partly drawn) [compound 218]
13,4800 nM,CCOC(=O)[C@H](Cc1ccccc1)NC(=O)c1cnc(Oc2ccc3c(c2)CC[C@@H](c2ccccc2)O3)s1 [compound 219]
14,600 nM,COC(=O)[C@@H](NC(=O)c1cnc(Oc2ccc3c(c2)CC[C@@H](c2ccccc2)O3)s1)C(C)(C)C [compound 220]
15,300 nM,COC(=O)C1CN(C(=O)c2cnc(Oc3ccc4c(c3)CC[C@@H](c3ccccc3)O4)s2)CC1C(F)(F)F (stereo partly drawn) [compound 221]
16,900 nM,COC(=O)[C@@H]1[C@@H]2C[C@@H]2CN1C(=O)c1cnc(Oc2ccc3c(c2)CC[C@@H](c2ccccc2)O3)s1 [compound 222]
17,1300 nM,COC(=O)[C@@H]1CC(C)(C)CN1C(=O)c1cnc(Oc2ccc3c(c2)CC[C@@H](c2ccccc2)O3)s1 [compound 223]
18,300 nM,COC(=O)C1CN(C(=O)c2cnc(Oc3ccc4c(c3)CC[C@@H](c3ccccc3)O4)s2)CC1C (stereo partly drawn) [compound 224]
19,500 nM,COC(=O)C1(C)CCN(C(=O)c2cnc(Oc3ccc4c(c3)CC[C@@H](c3ccccc3)O4)s2)C1 (stereo partly drawn) [compound 225]
20,700 nM,COC(=O)[C@H](O)[C@H](CC(C)C)NC(=O)c1cnc(Oc2ccc3c(c2)CC[C@@H](c2ccccc2)O3)s1 [compound 226]
21,1500 nM,CCOC(=O)C(CNC(=O)c1cnc(Oc2ccc3c(c2)CC[C@@H](c2ccccc2)O3)s1)CC(C)C (stereo partly drawn) [compound 230]
22,1500 nM,COC(=O)C(C)(CC(C)C)NC(=O)c1cnc(Oc2ccc3c(c2)CC[C@@H](c2ccccc2)O3)s1 (stereo partly drawn) [compound 231]

row,IC50,Structure (SMILES)
1,1500 nM,Cc1ccc(C2CCc3cc(Oc4ncc(C(=O)NCc5ccno5)s4)ccc3O2)cn1 (stereo not drawn) [compound 232]
2,800 nM,CC(Cc1ccccc1)(NC(=O)c1cnc(Oc2ccc3c(c2)CC[C@@H](c2ccccc2)O3)s1)C(=O)O (stereo partly drawn) [compound 233]
3,1000 nM,CC1(C)C[C@@H](C(=O)O)N(C(=O)c2cnc(Oc3ccc4c(c3)CC[C@@H](c3ccccc3)O4)s2)C1 [compound 234]
4,500 nM,CC1CN(C(=O)c2cnc(Oc3ccc4c(c3)CC[C@@H](c3ccccc3)O4)s2)CC1C(=O)O (stereo partly drawn) [compound 235]
5,1600 nM,CC(C)C[C@H](NC(=O)c1cnc(Oc2ccc3c(c2)CC[C@@H](c2ccccc2)O3)s1)[C@@H](O)C(=O)O [compound 236]
6,800 nM,CC(C)C[C@@H](NC(=O)c1cnc(Oc2ccc3c(c2)CC[C@@H](c2ccccc2)O3)s1)C(=O)O [compound 237]
7,300 nM,CC(C)CC(CNC(=O)c1cnc(Oc2ccc3c(c2)CC[C@@H](c2ccccc2)O3)s1)C(=O)O (stereo partly drawn) [compound 238]
8,2400 nM,CC1(C(=O)O)CCN(C(=O)c2cnc(Oc3ccc4c(c3)CC[C@@H](c3ccccc3)O4)s2)C1 (stereo partly drawn) [compound 239]
9,1100 nM,O=C(O)C[C@H](O)[C@H](CC1CCCCC1)NC(=O)c1cnc(Oc2ccc3c(c2)CC[C@@H](c2ccccc2)O3)s1 [compound 240]
10,600 nM,CC(C)C[C@H](NC(=O)c1cnc(Oc2ccc3c(c2)CC[C@@H](c2ccccc2)O3)s1)C(=O)O [compound 241]
11,700 nM,CC(C)CC(C)(NC(=O)c1cnc(Oc2ccc3c(c2)CC[C@@H](c2ccccc2)O3)s1)C(=O)O (stereo partly drawn) [compound 242]
12,600 nM,O=C(N[C@@H](Cc1ccccc1)C(=O)O)c1cnc(Oc2ccc3c(c2)CC[C@@H](c2ccccc2)O3)s1 [compound 244]
13,100 nM,COC(=O)CNCc1cnc(Oc2ccc3c(c2)CC[C@@H](c2ccccc2)O3)s1 [compound 245]
14,600 nM,O=C(O)CNCc1cnc(Oc2ccc3c(c2)CC[C@@H](c2ccccc2)O3)s1 [compound 246]
15,700 nM,O=C(NCc1ccnc(Cl)c1)c1cnc(Oc2ccc3c(c2)CCC(c2cncc(F)c2)O3)s1 (stereo not drawn) [compound 247]
16,800 nM,O=C(NCc1ccno1)c1cnc(Oc2ccc3c(c2)CCC(c2cncc(F)c2)O3)s1 (stereo not drawn) [compound 248]
17,1400 nM,O=C(NCCO)c1cnc(Oc2ccc3c(c2)CCC(c2cccnc2)O3)s1 (stereo not drawn) [compound 249]
18,1200 nM,COC(=O)CNC(=O)c1cnc(Oc2ccc3c(c2)CCC(c2cccnc2)O3)s1 (stereo not drawn) [compound 250]
19,1100 nM,O=C(N[C@H](CO)c1ccccc1)c1cnc(Oc2ccc3c(c2)CCC(c2cccnc2)O3)s1 (stereo partly drawn) [compound 251]
20,3200 nM,O=C(NC(CCO)C1CC1)c1cnc(Oc2ccc3c(c2)CCC(c2cccnc2)O3)s1 (stereo not drawn) [compound 252]
21,600 nM,O=C(NCCO)c1cnc(Oc2ccc3c(c2)CCC(c2cncc(F)c2)O3)s1 (stereo not drawn) [compound 253]
22,400 nM,CO[C@H]1CNC[C@@H]1NC(=O)c1cnc(Oc2ccc3c(c2)CC[C@@H](c2ccccc2)O3)s1 [compound 254]
